Holding throughout (format): in vivo, C. elegans
The subject of one data set is Phsp-16::hRFP reporter. The data set is described as follows: fluorescent plate reader assay of toxin dosage sensitivity, hsp-16::hRFP nematodes. As to conditions: 24 hr exposure, ~600 worms per well, assayed in triplicate; read-out: EC50 of red fluorescence response of Phsp-16::hRFP reporter. The text has this: FIGS. 3A, B, and C show the fluorescence plate-reader sensitivity and toxin response.
For instance, a protein homeostasis reporter was created by fusing heat shock protein to a nuclear localized red fluorescent protein (hsp-16.42::hRFP)(the materials and methods for the construction of the transgenic organism are described in more detail in the examples below). Exposure to heat toxicity generates induction of nuclear localization. This heat shock gene reporter was screened for gene induction capacity using a heat-shock protocol. The hsp-16::hRFP construct is exposed to a 1 hr incubation at 30 C. Gene induction was screened 4 to 24 hrs after heat shock. Significant red fluorescence is observed in the nuclei of heat-shocked worm relative to control (FIG. 5).
Toxin sensitivity of hsp-16 was confirmed with exposure to heavy metals and metalloids. To develop a rapid screen for the hsp-16::hRFP expression, a fluorescent plate reader assay was developed. To test the sensitivity of this assay, a titrating concentration of nematodes were exposed to heat shock. The worms were transferred to a 96 well plate and red fluorescence was quantified. Good sensitivity for a red fluorescence signal occurs at concentrations of 50 or more worms (FIG. 3A). Next, the toxin dosage sensitivity was measured.

Data set [1] has as its system hsp-16's (hsp-16.2, hsp-16.41) promoter reporters. The data set is described as follows: two-color nematode biosensor panel, plate reader assay, hsp-16 reporters. The settings on record: cadmium 1 mM, NGM plates, 15 hrs; population-normalized change relative to unexposed control. The text has this:
(§1) Responses are population-normalized changes relative to unexposed control. Error bars indicate […] of 2 to 6 independent measurements. The label “2 line” indicates data derived from combining responses of two independently-derived MosSCI lines for the same reporter.
(§2) The seven different promoters used to create the lines were obtained from genes involved in oxidative stress response. Two genes used were alpha cystallins which respond to cytoplasmic heat shock (hsp-16.2 and hsp-16.41) (David et al. Environ. Toxicol. Chem 2003 January; 22(1):111-118; Hong et al. J. Mol. Biol 2004 November; 344(2):369-381; Candido E P M. Prog. Mol. Subcell. Biol 2002; 28:61-78; Dengg et al. J Pharmacol Toxicol Methods 2004 December; 50(3):209-214; and Strayer et al. FASEB J 2003 December; 17(15):2305-2307). […] The resulting hsRFP reporter construct expresses red fluorescence in cell nuclei. […]
(§3) Changes in expression were quantified with a plate reader assay. […]

For the next data set, the system named is ugt-1 promoter reporter. In words: two-color nematode biosensor panel, plate reader assay, ugt-1 reporter. As to conditions: cadmium 1 mM, NGM plates, 15 hrs; population-normalized change relative to unexposed control.
Excerpt: as §1, §2, §3

Data set [2] deals with metallothionein gene (mtl-2) promoter reporter. The data set is described as follows: two-color nematode biosensor panel, plate reader assay, mtl-2 reporter. The settings on record: cadmium 1 mM, NGM plates, 15 hrs; population-normalized change relative to unexposed control.
Excerpt: as §1, §2, §3

For another data set, the system named is nematode population. In words: chronic toxin exposure, effect on nematode population size. As to conditions: chronic exposure for 72 hrs, various concentrations. The protocol: FIGS. 4A, B, and C show the population effects of chronic toxin exposure.
Advantageously, the transgenic animals described in these examples can have a control reporter (e.g., constitutively expressed). Exposure to some selected agents or toxins can lead to shortened life-span, lower brood sizes or other effects that need to be controlled. The problem becomes most pronounced in chronic assays. […] Thus, it was determined a control for population mass differences between assay wells is desirable. Introduction of a second constitutively expressed reporter gene can be used to control for various population differences.

Another data set relates to hsp-4 promoter reporter. The data set is described as follows: two-color nematode biosensor panel, plate reader assay, hsp-4 reporter. As to conditions: cadmium 1 mM, NGM plates, 15 hrs; population-normalized change relative to unexposed control.
Excerpt: as §1, §2, §3

For orientation: EC50 means the concentration that produces a half-maximal response. As to `[Cl][Cd][Cl]` [cadmium, cadmium chloride], the EC50 in the data set with Phsp-16::hRFP reporter was ~200 µM. Further, the “induction of expression from hsp-16's reporters” value in data set [1] is “only mildly induced”. Further, the “induction of expression from ugt-1 reporter” value with ugt-1 promoter reporter is “only mildly induced”. The “induction of metallothionein gene expression (reporter)” value in data set [2] is given as “primarily induced”. For the same compound, the “effect on population size” value in the data set with nematode population was “significant population effects”. In addition, the “induction of expression from hsp-4 reporter” value in the data set with hsp-4 promoter reporter is given as “only mildly induced”.
On to sodium bis-arsenite [arsenic], for which, in the data set on Phsp-16::hRFP reporter, the EC50 was ~1500 µM.

These data come from patent US12171203B2, “Transgenic biosensor” (KDT, Inc., priority 2011, dated 2024).
